Experimental data as given in patent US9833425B2, “Gentisic acid is used to improve systemic hemodynamics, hepatic mitochondrial function and lactate acidemia in patients with septic shock” (priority 2015, dated 2017).
“Also recorded” adds a separate entry of the source. Like-named read-outs stand apart in the source and are kept apart here. Marks after values point to notes of the source that are not given here.

What was measured:
[1] = tested on: canine model of septic shock (Pseudomonas aeruginosa); details: for effect of treatment on heart rate (HR): 3 hrs and 5 hrs posttreatment vs other septic groups; for ALT (alanine transaminase) / AST (aspartate transaminase) / Arterial pH / CK (creatine kinase) / Oxygen delivery / Cardiac output / LD (lactate dehydrogenase) / Lactate / Mean arterial pressure / Pulmonary wedge pressure / Stroke work index / Troponin / Heart Rates: mean ± SD; for effect of treatment on mean arterial pressure (MAP): infusion started at septic shock condition, 3 hr and 5 hr post treatment; for effect of treatment on blood lactate concentration: over the course of the study; for Systemic vascular resistance: mean (SD in the cell below)
Method: We used a bacteremic model of Pseudomonas aeruginosa in this study as previously described (20). We used this particular model, since we wanted to measure mitochondrial function and LA under conditions of an acute and intensive inflammatory response analogous to that which would occur in a severe bout of SS in the clinical condition. […] Over the course of the experiment, we studied the animals (18 to 26 kg) while anesthetized with sufentanil citrate (0.05-0.3 ug/kg/min) and midazolam (5 ug/kg/min), and while being ventilated receiving 100% oxygen to maintain arterial around PO2 ˜400 mmHg. We adjusted the ventilator rate over the course of the study to attenuate the development of the metabolic acidosis that is usually observed (20).
To assess hemodynamics in this model, we inserted vascular catheters under sterile conditions as previously described (20), after which we connected the catheters to pressure transducers (Cobe, Argon) that were referenced relative to the left atrium and connected to a chart recorder (Astro-Med, W Warwick, R.I.). To measure MAP, we inserted a polyethylene catheter into the right femoral artery, while to measure pulmonary vascular pressures, we inserted a Swanz-Ganz catheter (Edwards Lifesciences, Irvine, Calif.) by percutaneous techniques through the right jugular vein. From the Swanz-Ganz catheter, we obtained measurements of pulmonary arterial pressure (Ppa), wedge pressure (Pwp), and right atrial pressure (Rap), as well as determinations of thermodilution cardiac output (CO).
From the hemodynamic measurements, we calculated SV from CO/heart rates (HR), stroke work (SW) from [SV*(MAP−Pwp)], and systemic vascular resistance (SVR) from [(MAP-Rap)/CO)*80]. We also normalized measurements of SV, SW, and CO and organ oxygen delivery (DO2) to body weight. We calculated DO2 from CO×Hb×1.34 ml oxygen per gram of Hb, since Hb was 100% saturated at a PO2 of ˜400 mmHg. From the arterial catheter and distal port of the Swanz-Ganz catheter, we also took arterial and mixed venous blood samples, respectively, for analyses of PO2, PCO2, and pH.
In addition, we placed another polyethylene catheter into the left jugular vein, also by percutaneous techniques, for infusion of the bacteria and intravenous fluids and for obtaining blood chemistry and hematological samples. Since the baseline Pwp found in this model usually averages≈8-10 mmHg, we infused normal saline solution as necessary to maintain Pwp relatively constant over the duration of this study. […] The Clinical Chemistry Laboratory at the Health Sciences Centre performed the clinical laboratory tests.
We included 5 groups of animals in the initial phase of this study. These groups included a septic control group, a non-septic control group, a norepinephrine (NE) septic group, a gentisic acid sodium salt (GSS) septic group, and a GSS non-septic group. In each group, we made baseline measurements of hemodynamics and blood parameters after approximately 1 hr period of stability. In the septic groups, after initiation of the bacterial infusion, we repeated the measurements in the septic shock condition. […] In the septic control group, after the SS condition, we started an infusion of 5% dextrose in water (D5W) at approximately 40 ml/hr for the remainder of the study, since D5W was the diluent for both the NE and GSS treatments.
In all groups, we then made posttreatment measurements at 3 hrs and 5 hrs after completion of the septic shock/sham-shock determinations.
In this supplemental study, we examined the effect of gallic acid on hemodynamics and mitochondrial function in our Pseudomonas aeruginosa model in a manner identical to that described for GSS treatment.

[2] = tested on: mitochondrial complex IV (cytochrome c oxidase); assay: Enzymatic activity of hepatic mitochondrial complex IV; format: biochemical, dog; details: hepatic mitochondria of treated septic dogs; mean ± SD
Excerpt: As part of our assessment of mitochondrial function, we also measured the enzymatic activity of hepatic mitochondrial complex IV based on the rationale of Levy et al (10), since these investigators considered that dysfunction of complex IV was the most important determinant of abnormal mitochondrial function in SS. We determined complex IV activity spectrophotometrically by a temperature-controlled Ultrospec™ 2100 ultraviolet-visible spectrophotometer (Biopharmacia Biotech, Uppsala, Sweden) (17). Complex IV activity was measured at 25° C. by monitoring the absorbance decrease of reduced cytochrome c at 550 nm.

[3] = septic dogs, listed as gentisic, sodium salt
[4] = septic dogs, 3 hrs posttreatment
[5] = septic dogs, 5 hrs posttreatment
[6] = septic dogs, baseline (before bacteria/treatment)
[7] = septic dogs, septic shock (before treatment)
[8] = septic dogs, septic shock condition (before treatment)

Structure (SMILES): O=C([O-])c1cc(O)ccc1O.[Na+] [GSS, 2,5-dihydroxybenzoic acid sodium salt]
- time of infusion until systemic blood pressure reached the baseline value ([1]; one dog of the gentisic septic group (FIG. 4)): approximately 20 minutes
- arterial pH at the end of the study, compared among groups ([1]; septic dogs): higher
- effect of treatment on stroke work index ([1]; septic dogs, 3 hr and 5 hr vs septic control group, did not reach statistical significance): an increase in stroke work index
- effect of treatment on heart rate (HR) [1, 3]: significant decrease in HR
- effect of treatment on heart rate (HR) ([1]; septic dogs, sodium salt): heart rates were lower
- effect of treatment on systemic vascular resistance (SVR) ([1]; septic dogs, 3 hrs and 5 hrs posttreatment vs septic shock condition, sodium salt): increased SVR back to the baseline value; also recorded: an increase in SVR
- ALT (alanine transaminase) [1, 4]: 209 ± 158*^+! IU
- AST (aspartate transaminase) [1, 4]: 235 ± 167*^+$ IU
- Arterial pH [1, 4]: 7.24 ± .08*^+$^
- CK (creatine kinase) [1, 4]: 1847 ± 1763^! IU
- Oxygen delivery [1, 4]: 20 ± 7 mL/min/kg
- ALT (alanine transaminase) [1, 5]: 225 ± 171*^+ IU
- AST (aspartate transaminase) [1, 5]: 279 ± 208*^+!$ IU
- Arterial pH [1, 5]: 7.20 ± 0.06*^+#$^
- CK (creatine kinase) [1, 5]: 2857 ± 2527*^!^ IU
- Oxygen delivery [1, 5]: 20 ± 19 mL/min/kg
- ALT (alanine transaminase) [1, 6]: 51 ± 29 IU
- AST (aspartate transaminase) [1, 6]: 29 ± 31 IU
- Arterial pH [1, 6]: 7.38 ± .03
- CK (creatine kinase) [1, 6]: 117 ± 106 IU
- Oxygen delivery [1, 6]: 18 ± 3 mL/min/kg
- effect of treatment on mean arterial pressure (MAP) ([1]; septic dogs, sodium salt): increased MAP back to the baseline value; also recorded: return in MAP to baseline
- effect of treatment on blood lactate concentration [1, 3]: did not increase and even tended to decrease slightly
- effect of treatment on blood lactate concentration ([1]; septic dogs, sodium salt): did not change
- ALT (alanine transaminase) [1, 7]: 161 ± 132 IU
- AST (aspartate transaminase) [1, 7]: 143 ± 113 IU
- Arterial pH [1, 7]: 7.26
- CK (creatine kinase) [1, 7]: 521 ± 750 IU
- Oxygen delivery [1, 8]: 26 ± 6 mL/min/kg
- enzymatic activity of mitochondrial complex IV [2]: 3.68±0.59 umol/min/mg protein

Structure (SMILES): O=C(O)c1cc(O)c(O)c(O)c1 [gallic acid, 3,4,5 trihydroxybenzoic acid]
- Systemic vascular resistance ([1]; septic dogs, 3 hrs post treatment): 1673 dynes S/cm^5
- ALT (alanine transaminase) [1, 4]: 187 ± 68*^+! IU
- AST (aspartate transaminase) [1, 4]: 324 ± 104*^+$ IU
- Arterial pH [1, 4]: 7.17 ± .10*^+@$
- CK (creatine kinase) [1, 4]: 3832 ± 3896*^+ IU
- Cardiac output [1, 4]: 120 ± 400 mL/min/kg
- LD (lactate dehydrogenase) [1, 4]: 415 ± 192*^+#@$^ IU
- Lactate [1, 4]: .8 ± .4^#! nunol/L
- Mean arterial pressure [1, 4]: 71 ± 10^*%@!$ mmHg
- Oxygen delivery [1, 4]: 26 ± 7 mL/min/kg
- Pulmonary wedge pressure [1, 4]: 11.6 ± 2.6^+ mmHg
- Stroke work index [1, 4]: 62 ± 28*^+ ml mmHg/Kg
- Troponin [1, 4]: 41 ± 92 ng/L
- Systemic vascular resistance ([1]; septic dogs, 5 hrs post treatment): 1478 dynes S/cm^5
- ALT (alanine transaminase) [1, 5]: 189 ± 66*^+#! IU
- AST (aspartate transaminase) [1, 5]: 363 ± 89*^+$ IU
- Arterial pH [1, 5]: 7.12
- CK (creatine kinase) [1, 5]: 5065 IU
- Cardiac output [1, 5]: 130 ± 40 mL/min/kg
- LD (lactate dehydrogenase) [1, 5]: 513 IU
- Lactate [1, 5]: .75 ± .35^#! nunol/L
- Mean arterial pressure [1, 5]: 60 ± 5*^%@!$ mmHg
- Oxygen delivery [1, 5]: 22 ± 3 mL/min/kg
- Pulmonary wedge pressure [1, 5]: 11.3 ± 2.1^+ mmHg
- Stroke work index [1, 5]: 49 ± 20*^+ ml mmHg/Kg
- Troponin [1, 5]: 69 ± 157* ng/L
- Systemic vascular resistance [1, 6]: 3566 dynes S/cm^5
- ALT (alanine transaminase) [1, 6]: 33 ± 16 IU
- AST (aspartate transaminase) [1, 6]: 19 ± 3 IU
- Arterial pH [1, 6]: 7.40 ± .05
- CK (creatine kinase) [1, 6]: 104 ± 35 IU
- Cardiac output [1, 6]: 113 ± 20 mL/min/kg
- Heart Rates [1, 6]: 49 ± 3
- LD (lactate dehydrogenase) [1, 6]: 36 ± 10 IU
- Mean arterial pressure [1, 6]: 105 ± 14 mmHg
- Oxygen delivery [1, 6]: 21 ± 6 mL/min/kg
- Pulmonary wedge pressure [1, 6]: 11.3 ± 2.3 mmHg
- Stroke work index [1, 6]: 212 ± 43 ml mmHg/Kg
- Troponin ([1]; septic dogs, baseline (before bacteria/treatment), index of myocardial injury): 0 ± 3 ng/L
- effect of treatment on mean arterial pressure (MAP) ([1]; septic dogs): did not produce an increase in MAP
- effect of treatment on blood lactate concentration ([1]; septic dogs): reduction in lactate at 3 hrs and 5 hrs posttreatment
- ALT (alanine transaminase) [1, 7]: 157 ± 61 IU
- AST (aspartate transaminase) [1, 7]: 241 ± 104*^+$ IU
- Arterial pH [1, 7]: 7.25 ± .10*^+$
- CK (creatine kinase) [1, 7]: 2650 ± 3339 IU
- LD (lactate dehydrogenase) [1, 7]: 200 ± 98*^+$ IU
- Systemic vascular resistance [1, 8]: 1257 dynes S/cm^5
- Cardiac output [1, 8]: 150 ± 40 mL/min/kg
- Heart Rates [1, 8]: 125 ± 28*^+
- Mean arterial pressure [1, 8]: 64 ± 12*^+ mmHg
- Oxygen delivery [1, 8]: 25 ± 6 mL/min/kg
- Pulmonary wedge pressure [1, 8]: 10.4 ± 2.7^+ mmHg
- Stroke work index [1, 8]: 72 ± 32*^+ ml mmHg/Kg
- Troponin [1, 8]: 14 ± 15 ng/L
- enzymatic activity of mitochondrial complex IV [2]: 2.44±0.63 umol/min/mg protein
